Results as given in EPA's ToxValDB 9.5.

Test system: Rattus norvegicus
Details: oral
[1] = short-term, duration: 28 days, gavage, M, Sprague-Dawley, Clinical Observation: Locomotor activity decrease, Respiratory rate decrease, Incomplete eyelid opening + Blood Chemistry: TG decrease + …
[2] = chronic, duration: 17 weeks, gavage, F, Ash/CSE, Body Weight Changes: decrease
[3] = chronic, duration: 17 weeks, gavage, M, Ash/CSE, Body Weight Changes: decrease
[4] = subchronic, gavage, M, Sprague-Dawley, Clinical Observation: Salivation + Body Weight Changes: Body weight gain decrease + Food Consumption: decrease + Water Consumption: increase…
[5] = subchronic, gavage, M, Sprague-Dawley, Clinical Observation: Salivation (transient) + Functional Observational Battery: Salivation (transient)Defecation increase(transient) + …
[6] = subchronic, gavage, M, Sprague-Dawley, Body Weight Changes: decrease, Gain decrease + Food Consumption: decrease + Hematology: RBC decrease, Hgb decrease, Hct decrease, Ret …

For `CC(C)c1ccc(N)cc1` [Cumidine], the NOEL (subchronic, gavage, M, Sprague-Dawley, Clinical Observation: Anemia in eyes + Hematology: Met-Hgb increase, Hct decrease, Hgb decrease, RBC decrease, MCV increase, MCH increase, …) was 6 mg/kg-day.
Compound `O=C1CCCCC1C1=CCCCC1` (stereo not given) [Cyclohexanone, 2-(1-cyclohexen-1-yl)-] has an NOEL (subchronic, gavage, M, Sprague-Dawley, Clinical Observation: Salivation + Body Weight Changes: decrease + Blood Chemistry: gamma-GTP increase, TP increase, Alb increase, T-Cho …) of 40 mg/kg-day.
Work on `COC(=O)CC(=O)OC` [Dimethyl malonate] yielded an NOAEL (subchronic, gavage, M, Wistar, Histopathology: Liver: Hypertrophy, hepatocyte) of 300 mg/kg-day.
With `CN(C)CCCCl.Cl` [Dimethylaminopropyl chloride hydrochloride] the NOEL (subchronic, drinking water, M/F, Fischer 344, Deaths + Body Weight Changes: decrease + Blood Chemistry: TP decrease Alb decrease Bile acid increase + Histopathology: Nose-Goblet cell, …) was under 6.25 mg/kg-day.
`CC(CO)OC(C)CO.CC(O)COCC(C)O` (stereo not given) [Dipropylene glycol] showed an NOAEL [1] of 1000 mg/kg-day and an NOEL [1] of 200 mg/kg-day.
With `CC(C)C[C@H]1C(=O)N2CCC[C@H]2[C@]2(O)O[C@](NC(=O)[C@@H]3C=C4c5cccc6[nH]cc(c56)C[C@H]4N(C)C3)(C(C)C)C(=O)N12` [Ergocryptine] the NOEL (subchronic, diet, F, Hsd/Ola/SD, Clinical Observation: Hyperkinesia, dirty hair Hunchback position Aggression + Body Weight Changes: decrease + Food Consumption: decrease + …) was 0.36 mg/kg-day and the NOEL (subchronic, diet, M/F, Hsd/Ola/SD, Clinical Observation: Hyperkinesia, dirty hair Hunchback position Aggression + Body Weight Changes: decrease + Food Consumption: decrease + …) was 4 mg/kg-day.
Work on `CCOCCOCCOC` [Ethane, 1-ethoxy-2-(2-methoxyethoxy)-] yielded an NOAEL (subchronic, duration: 42 days, gavage, M, CD(SD), Clinical Observation: Decrease in locomotor activity Salivation (transient) + Food Consumption: decrease + Urinalysis: K decrease, Cl …) of 62.5 mg/kg-day.
Compound `Nc1ccc2cc(S(=O)(=O)CCO)ccc2c1` [Ethanol, 2-[(6-amino-2-naphthalenyl)sulfonyl]-] has an NOEL (short-term, duration: 28 days, gavage, M/F, Body Weight Changes: Weight gain decrease + Urinalysis: pH decrease(slight) + Hematology: RBC decrease, RET increase, PT increase + Absolute…) of 15 mg/kg-day.
`Nc1nc(N)nc(-c2cc(Cl)ccc2Cl)n1.O=C(O)/C=C\C(=O)O` [Irsogladine maleate] was tested, and the NOEL (chronic, duration: 91 days, gavage, M/F, Sprague-Dawley, Deaths + Clinical Observation: Piloerection Salivation Locomotor activity decrease, Decrease in reactivity Soiled fur Brownish urine Soiled …) was 3 mg/kg-day.
Work on `O=C(O)CCCC/C=C(\c1ccccc1)c1cccnc1` [Isbogrel] yielded an NOAEL (subchronic, gavage, M/F, CD, Clinical Observation: Salivation + Hematology: RBC decrease, HCT decrease, HGB decrease + Blood Chemistry: Bil increase, GLUC decrease, TP …) of under 100 mg/kg-day.
In the case of `CC(C)CCO` [Isopentyl alcohol], the NOAEL [2] is reported as 1000 mg/kg-day, the NOEL [2] is reported as 1000 mg/kg-day and the NOAEL [3] is reported as 500 mg/kg-day. For the same compound, the NOEL [3] was 500 mg/kg-day.
Compound `CC1(C)CC(N)CC(C)(CN)C1` (stereo not given) [Isophorone diamine] has an NOAEL (subchronic, duration: 90 days, drinking water, M/F, Wistar, Body Weight Changes: Weight gain decrease + Food Consumption: decrease + Water Consumption: decrease + Absolute Organ Weight: Kidney …) of 60 mg/kg-day.
For `CC(=O)N1CCN(c2ccc(OC[C@@H]3CO[C@@](Cn4ccnc4)(c4ccc(Cl)cc4Cl)O3)cc2)CC1` [Ketoconazole], the NOEL (short-term, duration: 28 days, gavage, M/F, Sprague-Dawley, Body Weight Changes: decrease + Blood Chemistry: ALT increase, Estrus cycle increase, T3 decrease, T4 decrease, TSH increase, Testosterone …) was under 6.25 mg/kg-day.
Compound `CC1(C)Oc2ccc(C#N)cc2[C@@H](N2CCCC2=O)[C@@H]1O` [Levcromakalim] has an NOAEL (chronic, duration: 91 days, diet, M/F, CD, Body Weight Changes: increase.3 + Food Consumption: increase.3 + Water Consumption: increase + Urinalysis: Volume increase Osmolality …) of 0.03 mg/kg-day.
In the case of `CCCCCC1C(=O)CCC1CC(=O)OC` (stereo not given) [Methyl dihydrojasmonate], the NOAEL [4] is reported as 100 mg/kg-day and the NOEL [4] is reported as 100 mg/kg-day.
For `CC1CCCCC1` [Methylcyclohexane], the LOEL [5] was 250 mg/kg-day and the NOEL [5] was 62.5 mg/kg-day.
`CC(C)CCCCCOC(=O)C[S][Sn]([CH3])([S]CC(=O)OCCCCCC(C)C)[S]CC(=O)OCCCCCC(C)C` [Methyltin tris(isooctyl mercaptoacetate)] gave an NOAEL (subchronic, duration: 90 days, diet, M, Wistar, Blood Chemistry: BUN increase + Relative Organ Weight: Thymus increase, Kidney increase + Histopathology: Kidney: Dilatation, tubule, cystic…) of 48 mg/kg-day.
With `CCC(C)=NO[Si](C)(ON=C(C)CC)ON=C(C)CC` [Methyltri(2-butanoneoximyl)silane] the NOAEL (short-term, duration: 28 days, gavage, M, Wistar, Functional Observational Battery: Rearing decrease, Grip strength(fore and hind limb) decrease, Mean body temperature decrease + Body Weight…) was 10 mg/kg-day.
With `CC(CN1CCOCC1)OCCN1CCOCC1` (stereo not given) [Morpholine, 4-[2-[1-methyl-2-(4-morpholinyl)ethoxy]ethyl]-] the NOEL (short-term, duration: 28 days, gavage, M/F, Clinical Observation: Salivation Ptosis Reddish pinna Swelling of pinna + Body Weight Changes: Body weight gain decrease + Food Consumption…) was under 8 mg/kg-day.
For `CCn1cc(C(=O)O)c(=O)c2ccc(C)nc21` [Nalidixic acid], the NOEL (subchronic, duration: 13 weeks, diet, M/F, Fischer 344, Deaths + Body Weight Changes: decrease + Food Consumption: decrease + Absolute Organ Weight: Liver increase + Relative Organ Weight: Liver …) was 96 mg/kg-day.
`NC(=O)N/N=C/c1ccc([N+](=O)[O-])o1` [Nitrofurazone] was tested, and the NOEL (subchronic, duration: 13 weeks, diet, M/F, Fischer 344, Body Weight Changes: decrease + Food Consumption: decrease + Absolute Organ Weight: Liver increase + Relative Organ Weight: Liver increase…) was under 14.4 mg/kg-day.
Compound `CCCCCCCCC` [Nonane] has an NOAEL (subchronic, duration: 90 days, gavage, F, Fischer 344, Absolute Organ Weight: Liver increase, Lung increase, Adrenal increase, Spleen decrease, Ovary decrease + Histopathology: Alimentary tract: …) of 100 mg/kg-day.
In the case of `ClCCCCCCCCCl` [Octane, 1,8-dichloro-], the NOEL (short-term, duration: 28 days, gavage, M/F, Sprague-Dawley, Deaths + Clinical Observation: Salivation + Functional Observational Battery: Grip strength (forelimb) decrease, Grip strength (hindlimb) …) is reported as under 40 mg/kg-day.
For `FC(F)(F)C1(F)C(F)(F)C(F)(F)C(F)(F)C(F)(F)C1(F)C(F)(F)F` (stereo not given) [Perfluoro-1,2-dimethylcyclohexane], the NOEL (subchronic, duration: 42 days, gavage, M, CD(SD), Hematology: HGB decrease, HCT decrease + Histopathology: Liver-Hypertrophy, hepatocyte, central) was 300 mg/kg-day.
For `O=C(O)C(F)(F)C(F)(F)C(F)(F)C(F)(F)C(F)(F)C(F)(F)C(F)(F)C(F)(F)C(F)(F)C(F)(F)C(F)(F)C(F)(F)C(F)(F)C(F)(F)C(F)(F)C(F)(F)C(F)(F)F` [Perfluorooctadecanoic acid], the LOEL [6] was 200 mg/kg-day and the NOEL [6] was 40 mg/kg-day.
`CC(CN1c2ccccc2Sc2ccccc21)N(C)C.Cl` (stereo not given) [Promethazine hydrochloride] showed an NOEL (subchronic, duration: 13 weeks, gavage, M/F, Fischer 344, Deaths + Clinical Observation: Hunched posture Labored respiration Abnormal respiratory sounds + Body Weight Changes: decrease + Absolute …) of 3.7 mg/kg-day.
`CC(=O)/C=C/C=C(\C)CCC=C(C)C` [Pseudoionone] was tested, and the NOAEL (short-term, duration: 28 days, gavage, M/F, Wistar Han, Clinical Observation: Salivation + Body Weight Changes: Weight gain decrease + Hematology: RBC increase, HCT increase, PLT increase, APTT …) was 50 mg/kg-day.
With `Br.CN1[C@@H]2CC(OC(=O)[C@H](CO)c3ccccc3)C[C@H]1[C@@H]1O[C@@H]12.O.O.O` (stereo not given in full) [Scopolamine hydrobromide trihydrate] the NOEL (chronic, duration: 14 weeks, gavage, M/F, Fischer 344, Deaths + Clinical Observation: Pupillary dilation Reddening of eyes Hypoactivity + Body Weight Changes: decrease + Hematology: Hgb increase…) was under 15 mg/kg-day.
With `CCCCCCC[CH2][Sn]([Cl])([Cl])[Cl]` [Stannane, trichlorooctyl-] the NOAEL (subchronic, duration: 13 weeks, diet, M/F, Wistar, Blood Chemistry: ALP increase + Absolute Organ Weight: Thymus decrease + Relative Organ Weight: Thymus decrease + Histopathology: Thymus- …) was 9.6 mg/kg-day and the NOAEL (subchronic, duration: 13 weeks, diet, M/F, Wistar, Body Weight Changes: Mean body weight decrease + Food Consumption: decrease + Urinalysis: SG decrease + Hematology: HGB decrease, HCT …) was under 2.88 mg/kg-day.
`CC(C)(c1cc(Br)c(OCCO)c(Br)c1)c1cc(Br)c(OCCO)c(Br)c1` [Tetrabromobisphenol A bis(2-hydroxyethyl) ether] gave an NOEL (subchronic, gavage, M, Sprague-Dawley, Clinical Observation: Soft stool R + Hematology: Plt increase + Blood Chemistry: BUN increase + Necropsy: Cecum-Distention) of 40 mg/kg-day.
With `CCCC[N+](CCCC)(CCCC)CCCC.[Br-]` [Tetrabutylammonium bromide] the NOEL (subchronic, gavage, M/F, Sprague-Dawley, Deaths + Clinical Observation: Reddish urine + Body Weight Changes: Gain decrease + Food Consumption: increase + Urinalysis: Light brown …) was 60 mg/kg-day.
For `O=C1OC(=O)c2c(Cl)c(Cl)c(Cl)c(Cl)c21` [Tetrachlorophthalic anhydride], the NOEL (subchronic, gavage, M/F, Fischer 344, Deaths + Body Weight Changes: decrease + Blood Chemistry: gamma-GTP increase, Glu decrease + Absolute Organ Weight: Spleen decrease, Right …) was under 94 mg/kg-day.
For `c1ccc2c(c1)CCCC2` [Tetralin], the NOAEL (short-term, duration: 28 days, gavage, M/F, Wistar, Clinical Observation: Squatting position Closed eyes Reduced activity LethargyTonic convulsion Absence of auditory startle reflex + Body …) was 15 mg/kg-day.
With `Cn1c(=O)c2[nH]cnc2n(C)c1=O` [Theophylline] the NOEL (chronic, duration: 14 weeks, diet, F, Fischer 344, Absolute Organ Weight: Right kidney increase, Lung increase + Relative Organ Weight: Right kidney increase, Lungs increase + Histopathology…) was under 75 mg/kg-day, the NOEL (chronic, duration: 14 weeks, diet, M/F, Fischer 344, Absolute Organ Weight: Right kidney increase, Lung increase + Relative Organ Weight: Right kidney increase, Lungs increase + Histopathology…) was under 78 mg/kg-day and the NOEL (chronic, duration: 14 weeks, gavage, M/F, Fischer 344, Deaths + Absolute Organ Weight: Liver increase, Thymus decrease + Relative Organ Weight: Right kidney increase, Liver increase, Uterus …) was under 37.5 mg/kg-day.
`C=CCN(CC=C)CC=C` [Triallylamine] gave an NOEL (short-term, duration: 28 days, gavage, M/F, Sprague-Dawley, Clinical Observation: Locomotor activity decrease, Salivation + Functional Observational Battery: Hind limb grip strength decrease + Body …) of 6 mg/kg-day.
`Nc1nc(N)c2nc(-c3ccccc3)c(N)nc2n1` [Triamterene] showed an NOEL (subchronic, duration: 13 weeks, diet, M/F, Fischer 344, Deaths + Body Weight Changes: decrease + Food Consumption: decrease + Histopathology: Kidney-Tubule degeneration Kidney-Cast Kidney-Tubule …) of 14.4 mg/kg-day.
`OCCOCCOCCO` [Triethylene glycol] showed an NOEL (subchronic, duration: 13 weeks, diet, M/F, Fischer 344, Body Weight Changes: Mean body weight decrease, Body weight gain decrease + Urinalysis: Urinalysis', 'Volume increase, pH decrease + …) of 1920 mg/kg-day.
For `CO[Si](C)(OC)OC` [Trimethoxymethylsilane], the NOAEL (short-term, duration: 28 days, gavage, M, Sprague-Dawley, Clinical Observation: Inactivity Salivation + Body Weight Changes: Body weight gain decrease + Food Consumption: decrease + Hematology: PT …) was 50 mg/kg-day.
Compound `CC(C)(C)OOC(=O)c1ccccc1` [tert-Butyl perbenzoate] has an NOEL (subchronic, gavage, M/F, Fischer 344, Deaths + Body Weight Changes: decrease + Food Consumption: decrease + Absolute Organ Weight: Spleen decrease, Forestomach increase>60 …) of under 30 mg/kg-day.
